Measured values reported in patent publication US20080227638A1, “Use of abscisic acid to enhance growth control” (priority 2007, published 2008).

Assays:
Assay type in all cases: in vivo
Kentucky bluegrass [1] = test: Greenhouse Kentucky bluegrass height and quality, ABA and paclobutrazol (Example 2)
Procedure: (§1) Greenhouse studies were conducted at the Research Farm of Valent BioSciences Corporation (Long Grove, Ill.). Grasses were grown in pots (18 cm in diameter and 18 cm in height) filled with Promix BX (available from Premier Horticulture Inc. Quakertown, Pa.). Grass was irrigated daily by an overhead irrigation system. The irrigation system was set up with multiple Tornado Mist Spray Heads (10 GPH at 40 PSI-Wetted diameter, NDS/Raindrip, Woodland Hills, Calif.). Spray heads were 1-meter apart from each other and 75 cm above grass canopy. Grass was cut with a scissor at 2.5 cm height and fertilizer (1 g/L all purpose fertilizer 20-20-20, available from The Scotts Company, Marysville, Ohio) was applied once per week.
(§2) Chemical solutions were prepared with distilled water. Tween 20 (0.05% v/v) was used as an, adjuvant. Both trinexapac-ethyl (commercial product Primo Maxx, 11.3% active ingredient) and paclobutrazol (commercial product Trimmit 2SC, 22.3% active ingredient) were purchased from Syngenta Crop Protection Inc. (Greensboro, N.C.). Uniconazole-P (commercial product Sumagic, 0.55% active ingredient) was obtained from Valent U.S.A. Corporation (Walnut Creek, Calif.).
(§3) When treated with paclobutrazol or uniconazole-P, turfgrass received irrigation within 24 hours after application to flush chemicals to the root zone. After treatment, turfgrasses were arranged in a randomized complete block experimental design. Turfgrass quality, turfgrass height or clip fresh weight was measured on assigned dates. Turfgrass quality was visually rated on a 0-9 scale based on the color, uniformity and density of the grass with 0 as the worst and 9 as the best. Turfgrass height was measured as the distance between canopy surface and soil. Clips were collected from each plot; all plots were cut to a uniform height.
(§4) All experiments were randomized complete block experimental design. Data were analyzed by analysis of variance. Duncan's new multiple range tests at α=0.05 were used for mean separations.
Kentucky bluegrass sod (unknown variety) was purchased from Deak sod farms, Inc. (Union Grove, Wis.). Grass was grown in the greenhouse in pots (n=6 pots per treatment) for establishment before treatment. […] Turfgrass quality was evaluated at 7 days after treatment, and turfgrass height was measured at 7 and 28 days after treatment. Tween 20 (0.05% w/v) was included as an adjuvant. The turfgrass canopy was cut every 7 days during the experimental period.

Bermudagrass = Bermudagrass clip weight, ABA and uniconazole-P (Example 7); details: 50 ppm uniconazole-P; 7 days after treatment
Procedure: as §2, §3, §4

Kentucky bluegrass [2] = test: Greenhouse Kentucky bluegrass height, ABA and uniconazole-P (Example 3); details: 10 ppm uniconazole-P
Procedure: as §1, §2, §3, §4
Kentucky bluegrass sod (unknown variety) was purchased from Deak sod farms, Inc. (Union Grove, Wis.). Grass was grown in the greenhouse in pots (n=6 pots per treatment) for establishment before treatment. […] Tween 20 (0.05% w/v) was included as an adjuvant. The turfgrass was cut every 7 days.

creeping bentgrass = test: Golf course green creeping bentgrass height, clip weight and quality, ABA and uniconazole-P (Example 5); details: 0.5 ppm uniconazole-P
Procedure: Field studies were conducted at the nursery green or the practice green at Countryside golf course (Mundelein, Ill.). Both greens were sand based and growing Penncross creeping bentgrass. Grass was managed with typical Illinois golf course management practices.
as §2, §3, §4
Tween 20 (0.05% w/v) was included as an adjuvant.

| SMILES | Turfgrass height (Kentucky bluegrass [1]; 50 ppm paclobutrazol, 7 days after treatment) [cm] | Turfgrass height (Kentucky bluegrass [1]; 50 ppm paclobutrazol, 28 days after treatment) [cm] | Turfgrass height (Kentucky bluegrass [1]; 500 ppm paclobutrazol, 7 days after treatment) [cm] | Turfgrass height (Kentucky bluegrass [1]; 500 ppm paclobutrazol, 28 days after treatment) [cm] | Clip weight (Bermudagrass) [g] | less clip weight compared to control (Bermudagrass) [%] | Turfgrass height (Kentucky bluegrass [2]; 7 days after treatment) [cm] | Turfgrass height (Kentucky bluegrass [2]; 42 days after treatment) [cm] | Clip weight (creeping bentgrass; 7 days after treatment) [g] | Turfgrass height (creeping bentgrass; 7 days after treatment) [cm] | Clip weight (creeping bentgrass; 49 days after treatment) [g] | Turfgrass height (creeping bentgrass; 49 days after treatment) [cm] | Effect on turfgrass quality (creeping bentgrass; throughout the study (not shown)) |
| --- | --- | --- | --- | --- | --- | --- | --- | --- | --- | --- | --- | --- | --- |
| CC(C)(C)[C@@H](O)[C@@H](Cc1ccc(Cl)cc1)n1cncn1 [paclobutrazol] | 12.3 | 8.6 | 12.1 | 6.2 |  |  |  |  |  |  |  |  |  |
| CC(C)(C)[C@H](O)/C(=C\c1ccc(Cl)cc1)n1cncn1 [uniconazole-P] |  |  |  |  | 1.4 | 14 | 12.3 | 9.8 | 2.4 | 6.0 | 3.3 | 4.8 | No effect on turfgrass quality |
